The record followed here is publication PMC7048932, “Examining sterically demanding lysine analogs for histone lysine methyltransferase catalysis” (Scientific Reports, 2020).

In this assay the target is T1, GLP (Homo sapiens, UniProt Q9H9B1).
T1 construct: His6 (N); made in house; host or cells: E. coli BL21 (DE3)pLysS-rosetta
T1 sequence (Q9H9B1 1-1298): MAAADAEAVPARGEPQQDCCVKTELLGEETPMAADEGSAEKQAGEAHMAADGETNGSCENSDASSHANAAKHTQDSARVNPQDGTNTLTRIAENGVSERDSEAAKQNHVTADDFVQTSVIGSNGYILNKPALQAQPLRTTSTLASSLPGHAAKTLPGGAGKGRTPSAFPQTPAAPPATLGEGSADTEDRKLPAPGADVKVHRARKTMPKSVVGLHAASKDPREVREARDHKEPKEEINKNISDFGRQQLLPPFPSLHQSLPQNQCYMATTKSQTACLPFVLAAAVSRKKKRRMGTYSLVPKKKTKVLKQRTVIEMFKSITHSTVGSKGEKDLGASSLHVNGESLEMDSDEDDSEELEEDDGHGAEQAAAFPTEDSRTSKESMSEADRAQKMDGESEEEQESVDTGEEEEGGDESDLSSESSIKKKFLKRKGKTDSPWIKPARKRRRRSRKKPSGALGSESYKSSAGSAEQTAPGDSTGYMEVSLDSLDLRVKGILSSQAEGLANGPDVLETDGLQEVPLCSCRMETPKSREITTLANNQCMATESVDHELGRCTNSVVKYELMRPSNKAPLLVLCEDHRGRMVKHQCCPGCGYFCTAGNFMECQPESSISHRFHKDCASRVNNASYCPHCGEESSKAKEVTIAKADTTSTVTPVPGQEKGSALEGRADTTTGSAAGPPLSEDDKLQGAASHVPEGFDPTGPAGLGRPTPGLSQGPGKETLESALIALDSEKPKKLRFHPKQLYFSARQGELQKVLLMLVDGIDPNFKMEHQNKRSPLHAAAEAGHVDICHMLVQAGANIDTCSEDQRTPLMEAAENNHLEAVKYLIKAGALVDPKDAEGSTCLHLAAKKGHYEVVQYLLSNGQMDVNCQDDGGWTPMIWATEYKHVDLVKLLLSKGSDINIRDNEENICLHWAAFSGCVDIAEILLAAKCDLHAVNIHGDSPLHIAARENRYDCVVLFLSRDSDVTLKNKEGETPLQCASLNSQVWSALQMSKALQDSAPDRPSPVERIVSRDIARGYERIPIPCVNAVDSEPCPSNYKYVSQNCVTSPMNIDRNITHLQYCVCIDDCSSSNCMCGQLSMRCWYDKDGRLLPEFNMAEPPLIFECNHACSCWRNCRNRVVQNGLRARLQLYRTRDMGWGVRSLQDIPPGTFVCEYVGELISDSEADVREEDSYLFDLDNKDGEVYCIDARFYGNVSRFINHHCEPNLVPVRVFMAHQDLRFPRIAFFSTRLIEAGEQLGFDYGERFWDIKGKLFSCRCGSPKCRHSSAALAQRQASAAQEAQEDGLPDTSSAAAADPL
In words: MALDI-TOF MS methylation assay of H3K9 peptides with GLP. The assay is classed as biochemical. As to conditions: peptide 100 µM, 37 °C. The protocol:
MALDI-MS methyltransferases activity experiments were performed using a Bruker instrument in the reflectron positive mode. For regular methyltransferase standard conditions experiment which carried out in 30 µL total volume, the mixture contains peptide (100 µM), SAM (200 µM), SETD8 or SETD7 (2 µM), in assay buffer 50 mM Tris at optimal pH 8.0. In case of G9a and GLP, similar conditions were used, except (500 µM) of SAM was added to the reaction mixture. […] A 5 µL aliquot of the solution was mixed with 5 µL of MeOH, after which 5 µL of this mixture was mixed with 5 µL of α-cyano-4-hydroxycinamic acid matrix (CHCA, 5 mg/mL in 125:125 µL acetonitrile/water). The spots were placed on a stainless steel MALDI plate (MS 96 target ground steel BC of Bruker, Germany). The mass corresponding to one monomethylation observed as +14 Da, dimethylation observed as +28 Da and trimethylation observed as +42 Da. The enzymatic activity was determined by taking the peak areas of each methylation state, including all isotopes and adducts, and was annotated using FlexAnalysis software (Bruker Daltonics, Germany). […] Methylated peptide substrates were repeated five times and the unmethylated substrates were triplicated. Sequences of the examined peptides are given in (Supplementary Table 1).

[1] abbreviates: GLP 10 µM, SAM 1 mM, 5 h, MALDI-MS.

As for ARTKQTAR(Kba9)STGGKA [H3Kba9], the “GLP-catalyzed methylation, result in words” value (GLP 2 µM, SAM 500 µM, 1 h, MALDI-TOF MS) is listed as “traces detected”. Besides, under setting [1], the “GLP-catalyzed methylation, result in words, increased GLP/SAM” value is on record as “monomethylation” and the “GLP-catalyzed monomethylation, increased GLP/SAM” value is listed as 55%.
